Calls of active or inactive are those of the source.
Tests used:
[1] = molecular target: T1, Lytic switch protein BZLF1 (Epstein-Barr virus (strain B95-8) (HHV-4) (Human herpesvirus 4), UniProt P03206); test: EBV ZTA inhibitors, dose response, counter-screen for EBNA-1 inhibitor project, biochemical, fluorescence polarization, Epstein-Barr virus, 1536-well (AID 2377); set-up: species or system human gammaherpesvirus 4;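 further: fluorescence polarization of Cy5-labelled ZRE DNA probe bound by purified Zta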
T1 sequence (P03206 whole entry): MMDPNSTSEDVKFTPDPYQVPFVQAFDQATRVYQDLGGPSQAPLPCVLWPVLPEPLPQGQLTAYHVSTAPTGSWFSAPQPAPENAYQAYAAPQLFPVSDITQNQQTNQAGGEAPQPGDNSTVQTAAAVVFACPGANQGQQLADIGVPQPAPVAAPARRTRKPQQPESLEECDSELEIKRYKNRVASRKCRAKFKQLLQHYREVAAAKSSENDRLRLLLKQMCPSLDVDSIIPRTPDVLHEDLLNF

[2] = molecular target: T2, Epstein-Barr nuclear antigen 1 (Epstein-Barr virus (strain B95-8) (HHV-4) (Human herpesvirus 4), UniProt P03211); test: EBNA-1 inhibitors, dose response, biochemical, fluorescence polarization, 1536-well (AID 2381); set-up: species or system human gammaherpesvirus 4;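 further: fluorescence polarization of a Cy5 DNA probe bound by EBNA-1 protein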
T2 sequence (P03211 whole entry): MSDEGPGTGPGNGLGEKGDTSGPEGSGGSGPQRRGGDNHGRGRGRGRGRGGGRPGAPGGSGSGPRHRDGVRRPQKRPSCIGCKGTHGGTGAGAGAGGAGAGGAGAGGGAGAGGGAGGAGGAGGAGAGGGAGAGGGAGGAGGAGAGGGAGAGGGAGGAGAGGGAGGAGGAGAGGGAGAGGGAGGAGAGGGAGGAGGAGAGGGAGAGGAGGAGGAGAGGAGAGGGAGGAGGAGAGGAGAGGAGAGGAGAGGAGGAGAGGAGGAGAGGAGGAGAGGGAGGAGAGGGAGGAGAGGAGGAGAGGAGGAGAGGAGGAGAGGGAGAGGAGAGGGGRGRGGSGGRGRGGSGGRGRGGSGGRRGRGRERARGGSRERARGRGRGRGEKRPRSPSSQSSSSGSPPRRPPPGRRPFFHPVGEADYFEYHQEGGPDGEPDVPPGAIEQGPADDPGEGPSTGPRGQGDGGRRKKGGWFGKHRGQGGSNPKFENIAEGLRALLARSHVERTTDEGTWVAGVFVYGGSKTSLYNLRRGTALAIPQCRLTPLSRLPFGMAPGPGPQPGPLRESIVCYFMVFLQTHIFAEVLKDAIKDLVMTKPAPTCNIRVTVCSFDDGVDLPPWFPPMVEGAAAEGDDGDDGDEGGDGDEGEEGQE

Mucolipin-3 = molecular target: T3, Mucolipin-3 (Homo sapiens, UniProt Q8TDD5); test: Dose response cell-based high-throughput screening assay for agonists of the transient receptor potential channel ML3 (TRPML3). [Related pubchem assays: 1526, 1424, 1448 ]; assay type: functional
T3 sequence (Q8TDD5 whole entry): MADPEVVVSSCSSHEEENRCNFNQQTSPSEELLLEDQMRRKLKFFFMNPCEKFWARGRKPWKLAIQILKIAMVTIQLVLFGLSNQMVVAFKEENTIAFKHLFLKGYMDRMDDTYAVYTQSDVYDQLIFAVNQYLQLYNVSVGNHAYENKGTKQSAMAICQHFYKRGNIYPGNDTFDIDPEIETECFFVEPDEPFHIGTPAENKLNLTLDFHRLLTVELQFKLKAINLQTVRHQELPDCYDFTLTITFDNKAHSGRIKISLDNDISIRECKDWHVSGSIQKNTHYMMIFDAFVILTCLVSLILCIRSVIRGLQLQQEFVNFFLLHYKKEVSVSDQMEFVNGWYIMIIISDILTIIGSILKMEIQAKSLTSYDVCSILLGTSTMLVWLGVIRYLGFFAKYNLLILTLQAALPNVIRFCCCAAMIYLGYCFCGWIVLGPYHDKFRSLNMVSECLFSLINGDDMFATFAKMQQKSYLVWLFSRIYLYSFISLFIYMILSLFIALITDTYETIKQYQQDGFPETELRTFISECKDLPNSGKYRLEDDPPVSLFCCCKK

Ion channel NompC = Ion channel NompC (Danio rerio, UniProt Q7T1G6); test: Fluorescence counterscreen assay for TRPML3 agonists: dose response cell-based high-throughput screening assay to identify agonists of the transient receptor potential channel N1 (TRPN1). [Related pubchem assays: 1526, 1424, 1448 ]; assay type: functional
[3] = molecular target: Glyceraldehyde-3-phosphate dehydrogenase (Homo sapiens, UniProt P04406)
Bcl-2-related protein A1 [4] = molecular target: T4, Bcl-2-related protein A1 (Mus musculus, UniProt Q07440); test: Bfl-1 inhibitors blocking BH3 peptide binding, confirmation, biochemical, TR-FRET, mouse Bfl-1 (AID 621);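 further: TR-FRET binding of GST-Bfl-1 to FITC-labelled Bid peptide via terbium antibody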
T4 sequence (Q07440 whole entry): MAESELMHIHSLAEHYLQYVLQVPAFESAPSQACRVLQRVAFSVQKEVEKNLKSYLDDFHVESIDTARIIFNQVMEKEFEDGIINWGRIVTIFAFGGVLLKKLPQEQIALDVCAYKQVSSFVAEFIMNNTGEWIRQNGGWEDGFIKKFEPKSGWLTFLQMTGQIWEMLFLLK

Bcl-2-related protein A1 [5] = molecular target: T4, Bcl-2-related protein A1; test: Bfl-1 binding inhibitors, SAR follow-up, biochemical, fluorescence polarization (AID 1070)
[6] = molecular target: T5, Carboxy-terminal domain RNA polymerase II polypeptide A small phosphatase 1 (Homo sapiens, UniProt Q9GZU7); test: inhibitors of CTDSP1, concentration-response testing, biochemical assay, absorbance-based, actives from ultra-high-throughput screening (AID 540297); assay type: functional
T5 sequence (Q9GZU7 whole entry): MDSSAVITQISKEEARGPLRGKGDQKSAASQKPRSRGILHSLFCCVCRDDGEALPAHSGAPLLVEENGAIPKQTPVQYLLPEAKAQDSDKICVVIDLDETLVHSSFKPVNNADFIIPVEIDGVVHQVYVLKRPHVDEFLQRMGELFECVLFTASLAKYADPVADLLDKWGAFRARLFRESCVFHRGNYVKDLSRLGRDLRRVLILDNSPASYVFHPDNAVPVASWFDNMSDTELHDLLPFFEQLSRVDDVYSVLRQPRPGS

Estrogen receptor beta [7] = molecular target: T6, Estrogen receptor beta (Homo sapiens, UniProt Q92731);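 further: recombinant ER-beta bound to coactivator SRC1 peptide in presence of estradiol agonist; inhibitors block coactivator peptide binding and lower the FRET signal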
Estrogen receptor beta [8] = molecular target: T6, Estrogen receptor beta; test: ERβ–SRC-3 coactivator interaction inhibitors, confirmation, orthogonal assay, biochemical, ELISA, streptavidin-HRP readout (AID 1060)
[9] = molecular target: Voltage-gated inwardly rectifying potassium channel KCNH2 (Homo sapiens, UniProt Q12809); test: hERG protection from proarrhythmic block, potency, dose response, cell-based, thallium flux (AID 2121); assay type: ADME
Cytochrome P450 2D6 = Cytochrome P450 2D6 (Homo sapiens, UniProt P10635); test: qHTS Assay for Inhibitors and Substrates of Cytochrome P450 2D6. [Related pubchem assays: 410 ]; assay type: ADME; conditions: read-out: Potency
Cytochrome P450 2C9 = Cytochrome P450 2C9 (Homo sapiens, UniProt P11712); conditions: Potency
[10] = molecular target: FAD-linked sulfhydryl oxidase ALR (Homo sapiens, UniProt P55789); test: inhibitors of human ALR sulfhydryl oxidase, dose response, biochemical, H2O2 detection, luminescence, cherry-pick (AID 493248)
[11] = molecular target: Protein-tyrosine kinase 2-beta (Homo sapiens, UniProt Q14289);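 further: potency of inhibitors of PYK2 kinase phosphorylation of poly-GT substrate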
Chain of Protein-tyrosine kinase 2-beta (Q14289 whole entry): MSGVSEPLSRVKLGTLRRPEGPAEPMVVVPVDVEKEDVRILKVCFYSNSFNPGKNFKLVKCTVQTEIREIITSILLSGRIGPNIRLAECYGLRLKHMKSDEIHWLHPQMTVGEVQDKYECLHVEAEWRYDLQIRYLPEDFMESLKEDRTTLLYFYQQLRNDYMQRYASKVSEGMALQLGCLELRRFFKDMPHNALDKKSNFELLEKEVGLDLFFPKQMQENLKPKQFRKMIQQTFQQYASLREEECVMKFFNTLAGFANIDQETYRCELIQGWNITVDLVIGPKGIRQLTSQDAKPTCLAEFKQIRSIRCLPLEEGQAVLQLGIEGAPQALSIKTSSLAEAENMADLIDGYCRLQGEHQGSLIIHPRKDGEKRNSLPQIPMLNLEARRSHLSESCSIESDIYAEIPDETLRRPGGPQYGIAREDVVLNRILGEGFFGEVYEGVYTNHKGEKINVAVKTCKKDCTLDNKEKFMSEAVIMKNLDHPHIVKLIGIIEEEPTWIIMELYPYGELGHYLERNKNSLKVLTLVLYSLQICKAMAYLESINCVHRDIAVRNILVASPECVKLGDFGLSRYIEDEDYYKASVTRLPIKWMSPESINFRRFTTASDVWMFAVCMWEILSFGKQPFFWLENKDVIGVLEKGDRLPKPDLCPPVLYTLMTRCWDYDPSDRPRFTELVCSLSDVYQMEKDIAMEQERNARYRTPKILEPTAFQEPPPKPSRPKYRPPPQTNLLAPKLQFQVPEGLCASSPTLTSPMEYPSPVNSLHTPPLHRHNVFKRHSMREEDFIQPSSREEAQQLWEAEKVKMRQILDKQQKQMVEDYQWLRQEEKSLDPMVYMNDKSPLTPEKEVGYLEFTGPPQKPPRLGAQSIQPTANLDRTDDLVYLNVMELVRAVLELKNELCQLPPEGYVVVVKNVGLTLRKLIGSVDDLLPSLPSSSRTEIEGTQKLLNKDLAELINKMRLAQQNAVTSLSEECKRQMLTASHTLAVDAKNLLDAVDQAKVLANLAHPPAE

T6 sequence (Q92731 whole entry): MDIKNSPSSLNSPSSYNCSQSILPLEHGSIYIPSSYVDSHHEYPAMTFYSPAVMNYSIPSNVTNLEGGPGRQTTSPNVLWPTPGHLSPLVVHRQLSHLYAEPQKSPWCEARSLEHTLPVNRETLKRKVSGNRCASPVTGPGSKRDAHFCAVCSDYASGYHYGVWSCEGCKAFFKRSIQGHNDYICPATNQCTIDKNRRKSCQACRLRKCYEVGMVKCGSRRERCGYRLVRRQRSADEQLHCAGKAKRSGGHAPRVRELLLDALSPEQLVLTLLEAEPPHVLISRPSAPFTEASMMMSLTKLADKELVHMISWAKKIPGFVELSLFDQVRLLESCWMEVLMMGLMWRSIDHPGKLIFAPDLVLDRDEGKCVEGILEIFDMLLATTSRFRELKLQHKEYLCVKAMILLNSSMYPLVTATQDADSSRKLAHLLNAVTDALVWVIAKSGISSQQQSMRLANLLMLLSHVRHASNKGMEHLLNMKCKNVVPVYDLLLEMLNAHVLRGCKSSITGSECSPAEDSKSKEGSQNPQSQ
Chain of Cytochrome P450 2C9 (P11712 whole entry): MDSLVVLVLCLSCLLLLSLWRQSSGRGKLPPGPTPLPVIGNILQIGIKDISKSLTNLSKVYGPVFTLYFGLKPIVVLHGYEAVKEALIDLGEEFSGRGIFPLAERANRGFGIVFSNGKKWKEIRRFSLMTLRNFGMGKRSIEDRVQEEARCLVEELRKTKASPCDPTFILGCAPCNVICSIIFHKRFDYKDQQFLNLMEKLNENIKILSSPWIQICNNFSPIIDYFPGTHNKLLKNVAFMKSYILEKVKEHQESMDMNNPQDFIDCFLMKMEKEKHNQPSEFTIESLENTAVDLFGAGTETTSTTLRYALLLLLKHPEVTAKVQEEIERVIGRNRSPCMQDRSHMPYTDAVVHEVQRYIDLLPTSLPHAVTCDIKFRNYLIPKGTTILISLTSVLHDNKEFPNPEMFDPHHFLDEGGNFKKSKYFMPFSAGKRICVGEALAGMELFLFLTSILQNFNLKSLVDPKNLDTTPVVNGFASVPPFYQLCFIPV
Chain of FAD-linked sulfhydryl oxidase ALR (P55789 whole entry): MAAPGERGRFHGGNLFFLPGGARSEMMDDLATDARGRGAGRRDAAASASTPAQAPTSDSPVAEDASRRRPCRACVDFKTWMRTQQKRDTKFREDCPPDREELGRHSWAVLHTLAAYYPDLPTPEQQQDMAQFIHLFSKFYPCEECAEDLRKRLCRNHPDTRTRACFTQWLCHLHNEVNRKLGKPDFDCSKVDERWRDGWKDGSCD
Chain of Glyceraldehyde-3-phosphate dehydrogenase (P04406 whole entry): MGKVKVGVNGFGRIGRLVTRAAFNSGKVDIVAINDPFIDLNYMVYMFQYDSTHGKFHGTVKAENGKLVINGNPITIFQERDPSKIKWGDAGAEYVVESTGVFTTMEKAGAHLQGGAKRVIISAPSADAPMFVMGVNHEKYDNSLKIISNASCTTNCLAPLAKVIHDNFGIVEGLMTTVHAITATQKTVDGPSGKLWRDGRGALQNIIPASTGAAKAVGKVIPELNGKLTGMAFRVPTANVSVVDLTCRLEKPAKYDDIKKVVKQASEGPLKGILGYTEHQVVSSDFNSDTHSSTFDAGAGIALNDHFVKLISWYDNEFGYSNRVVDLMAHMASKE
Chain of Ion channel NompC (Q7T1G6 whole entry): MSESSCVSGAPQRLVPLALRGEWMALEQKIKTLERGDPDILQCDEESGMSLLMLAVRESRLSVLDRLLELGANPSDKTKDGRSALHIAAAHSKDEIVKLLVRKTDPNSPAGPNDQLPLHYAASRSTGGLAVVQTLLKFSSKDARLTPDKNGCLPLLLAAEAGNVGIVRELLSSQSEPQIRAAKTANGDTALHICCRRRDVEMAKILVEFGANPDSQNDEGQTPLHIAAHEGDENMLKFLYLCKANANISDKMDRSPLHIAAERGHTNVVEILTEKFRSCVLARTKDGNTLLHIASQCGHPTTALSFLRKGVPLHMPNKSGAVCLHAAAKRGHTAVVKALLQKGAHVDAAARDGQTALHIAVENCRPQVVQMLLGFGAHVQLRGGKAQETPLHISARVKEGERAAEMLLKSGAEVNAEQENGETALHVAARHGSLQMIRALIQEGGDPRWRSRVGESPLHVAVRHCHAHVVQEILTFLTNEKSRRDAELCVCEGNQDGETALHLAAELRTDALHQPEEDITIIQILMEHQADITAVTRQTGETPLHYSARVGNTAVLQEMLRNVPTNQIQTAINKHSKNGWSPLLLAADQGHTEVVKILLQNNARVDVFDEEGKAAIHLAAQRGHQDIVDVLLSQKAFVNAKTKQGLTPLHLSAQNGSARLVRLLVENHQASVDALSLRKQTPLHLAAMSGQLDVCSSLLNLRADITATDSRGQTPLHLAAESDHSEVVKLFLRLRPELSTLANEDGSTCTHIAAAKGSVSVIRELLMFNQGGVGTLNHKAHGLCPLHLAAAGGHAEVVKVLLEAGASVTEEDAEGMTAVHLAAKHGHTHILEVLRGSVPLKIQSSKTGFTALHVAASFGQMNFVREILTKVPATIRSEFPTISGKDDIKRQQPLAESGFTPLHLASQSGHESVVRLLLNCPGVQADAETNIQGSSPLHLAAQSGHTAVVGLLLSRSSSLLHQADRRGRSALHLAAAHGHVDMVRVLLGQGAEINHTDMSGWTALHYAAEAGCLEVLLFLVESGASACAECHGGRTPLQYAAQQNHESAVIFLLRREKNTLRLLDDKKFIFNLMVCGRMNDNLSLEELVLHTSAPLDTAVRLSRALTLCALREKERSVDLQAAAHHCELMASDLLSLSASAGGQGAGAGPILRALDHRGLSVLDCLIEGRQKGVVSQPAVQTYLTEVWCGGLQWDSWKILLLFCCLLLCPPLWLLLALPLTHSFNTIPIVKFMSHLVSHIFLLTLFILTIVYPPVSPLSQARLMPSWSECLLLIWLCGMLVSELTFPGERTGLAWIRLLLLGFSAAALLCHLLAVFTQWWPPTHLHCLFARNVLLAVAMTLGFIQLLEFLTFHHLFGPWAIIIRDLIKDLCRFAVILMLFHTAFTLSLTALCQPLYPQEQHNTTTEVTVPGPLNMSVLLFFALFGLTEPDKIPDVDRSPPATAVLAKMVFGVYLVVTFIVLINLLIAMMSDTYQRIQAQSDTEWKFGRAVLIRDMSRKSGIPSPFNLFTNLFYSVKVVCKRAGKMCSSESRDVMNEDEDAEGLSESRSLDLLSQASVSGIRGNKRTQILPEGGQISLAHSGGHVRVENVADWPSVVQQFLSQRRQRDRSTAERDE
Chain of Cytochrome P450 2D6 (P10635 whole entry): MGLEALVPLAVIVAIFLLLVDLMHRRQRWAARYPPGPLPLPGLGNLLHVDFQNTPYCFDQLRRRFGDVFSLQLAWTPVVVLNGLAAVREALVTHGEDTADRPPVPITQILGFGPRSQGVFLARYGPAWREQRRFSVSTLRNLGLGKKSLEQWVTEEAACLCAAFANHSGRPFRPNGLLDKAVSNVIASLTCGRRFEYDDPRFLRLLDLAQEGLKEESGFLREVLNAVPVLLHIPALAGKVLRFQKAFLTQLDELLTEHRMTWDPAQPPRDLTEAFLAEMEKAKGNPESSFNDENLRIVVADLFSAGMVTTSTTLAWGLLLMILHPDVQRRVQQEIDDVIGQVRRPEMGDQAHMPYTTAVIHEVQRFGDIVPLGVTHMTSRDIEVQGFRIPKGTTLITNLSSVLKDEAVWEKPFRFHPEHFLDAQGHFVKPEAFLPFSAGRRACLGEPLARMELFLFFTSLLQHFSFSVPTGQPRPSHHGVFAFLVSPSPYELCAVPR

## O=C(Nc1cccc(-c2nnc(-c3ccccc3)o2)c1)C1CCCCC1
[1]
  IC50: > 111 µM (not active)
[2]
  IC50: 6.03 µM (active)

## Cc1cc(C)cc(N(CC(=O)N2CCOCC2)S(=O)(=O)c2ccccc2)c1
Mucolipin-3
  EC50: 3.71 µM (active)
Ion channel NompC
  EC50: > 29.9 µM (not active)

## Cc1ccccc1N1CCN(C2=C(Cl)C(=O)N(c3ccc(Cl)c(Cl)c3)C2=O)CC1
[3]
  IC50: > 100 µM (not active)
Bcl-2-related protein A1 [4]
  IC50: > 100 µM (not active)
Bcl-2-related protein A1 [5]
  IC50: > 100 µM (not active)

## O=C(Cc1cccs1)Nc1ccc(S(=O)(=O)N2CCCCC2)cc1
[6]
  IC50: 4.95 µM (active)
Estrogen receptor beta [7]
  IC50: 2.71 µM (active)
Estrogen receptor beta [8]
  IC50: < 77 µM (not active)

## COc1ccc(/C=C2/NC(=O)N(CC(=O)Nc3cccc(C)c3)C2=O)cc1O
[1]
  IC50: > 111 µM (not active)
[2]
  IC50: 9.14 µM (active)

## O=C(COc1ccc(Cl)cc1Cl)NC(=S)N1CCCc2ccccc21
[9]
  EC50: 4.06 µM (active)

## C=C(C)C(O)/C=C/c1cccc(OC)c1 (stereo not drawn)
Cytochrome P450 2D6
  AC50: 7.94 µM (inconclusive)
Cytochrome P450 2C9
  AC50: 7.94 µM (inconclusive)

## N#C/C(=N\Nc1c(Cl)cccc1Cl)C(=O)NN
[10]
  AC50: 2.37 µM (active)
[11]
  IC50: 28.2 µM (not active)

## O=c1c(/C=N/O)c(Nc2ccccc2)nc2ccccn12
[11]
  IC50: > 69.5 µM (not active)
